From PubChem BioAssay (NCI)
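Tested at 5 concentrations; 48 h exposure; 96-well plates; endpoints linearly interpolated, else capped at highest concentration. GI50 marks 50% less growth. TGI marks complete inhibition of growth.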

Experiments:
Assay in all cases: NCI anticancer screen, dose series, 48 h
A549 NSCLC = tested on: A549 NSCLC
CCRF-CEM leukemia = tested on: CCRF-CEM leukemia
DU-145 prostate = tested on: DU-145 prostate
EKVX NSCLC = tested on: EKVX NSCLC
IGROV1 ovarian = tested on: IGROV1 ovarian
LOX IMVI melanoma = tested on: LOX IMVI melanoma
MDA-MB-231 breast = tested on: MDA-MB-231 breast
NCI/ADR-RES ovarian = tested on: NCI/ADR-RES ovarian
OVCAR-4 ovarian = tested on: OVCAR-4 ovarian
PC-3 prostate = tested on: PC-3 prostate
RPMI-8226 leukemia = tested on: RPMI-8226 leukemia
SF-295 CNS = tested on: SF-295 CNS
SK-MEL-28 melanoma = tested on: SK-MEL-28 melanoma
SNB-19 CNS = tested on: SNB-19 CNS
SW-620 colon = tested on: SW-620 colon
T-47D breast = tested on: T-47D breast
UACC-257 melanoma = tested on: UACC-257 melanoma
UACC-62 melanoma = tested on: UACC-62 melanoma

Row | Compound | TGI (A549 NSCLC) | TGI (CCRF-CEM leukemia) | TGI (DU-145 prostate) | TGI (EKVX NSCLC) | TGI (IGROV1 ovarian) | TGI (LOX IMVI melanoma) | TGI (MDA-MB-231 breast) | TGI (NCI/ADR-RES ovarian) | TGI (OVCAR-4 ovarian) | TGI (PC-3 prostate) | TGI (RPMI-8226 leukemia) | TGI (SF-295 CNS) | TGI (SK-MEL-28 melanoma) | TGI (SNB-19 CNS) | TGI (SW-620 colon) | TGI (T-47D breast) | TGI (UACC-257 melanoma) | TGI (UACC-62 melanoma) | GI50 (EKVX NSCLC) | GI50 (T-47D breast)
1 | N#Cc1sc2nc(/C=C3/C=CC=CC3=O)c(O)n2c1N | > 100 µM | 74.9 µM | > 100 µM | > 100 µM | > 100 µM | > 100 µM | > 100 µM | > 100 µM | > 100 µM | > 100 µM | 81.2 µM | > 100 µM | > 100 µM | > 100 µM | > 100 µM | > 100 µM | > 100 µM | – | – | –
2 | CCOC(=O)CC1c2ccc(O)cc2OC(=O)C1c1ccc([N+](=O)[O-])cc1 (configuration not stated) | > 100 µM | 62.1 µM | > 100 µM | > 100 µM | 60.5 µM | > 100 µM | 48.6 µM | 72.6 µM | 92.3 µM | 67.2 µM | – | > 100 µM | > 100 µM | > 100 µM | > 100 µM | 60 µM | 94.5 µM | 84.4 µM | – | –
3 | CCC1c2[nH]c3ccccc3c2C[C@H]2C(=O)NC(COC(C)(C)C)C(=O)N12 (some centres not stated) | > 100 µM | – | > 100 µM | > 100 µM | > 100 µM | > 100 µM | > 100 µM | > 100 µM | > 100 µM | 91.9 µM | > 100 µM | 65.4 µM | > 100 µM | > 100 µM | > 100 µM | > 100 µM | > 100 µM | > 100 µM | – | –
4 | c1cc(-c2ncc(-c3ccc4c(c3)CCCO4)o2)ccn1 | > 100 µM | 29.3 µM | > 100 µM | > 100 µM | > 100 µM | 31 µM | > 100 µM | 23.1 µM | > 100 µM | 46.5 µM | 30.4 µM | > 100 µM | > 100 µM | > 100 µM | – | 63.7 µM | 43.5 µM | 66.3 µM | – | –
5 | O=C1c2cc3c(cc2CC12Cc1cc4c(cc1C2=O)CCC4)CCCC3 (configuration not stated) | > 100 µM | > 100 µM | > 100 µM | > 100 µM | > 100 µM | > 100 µM | > 100 µM | > 100 µM | > 100 µM | > 100 µM | > 100 µM | > 100 µM | > 100 µM | > 100 µM | > 100 µM | > 100 µM | > 100 µM | – | – | –
6 | COC1=C(Br)[C@H](O)[C@@]2(C=C1Br)CC(C(=O)NCCCCCN=C(N)N)=NO2 | > 10 µM | > 10 µM | > 10 µM | – | > 10 µM | > 10 µM | > 10 µM | > 10 µM | > 10 µM | > 10 µM | > 10 µM | > 10 µM | > 10 µM | > 10 µM | > 10 µM | > 10 µM | > 10 µM | > 10 µM | – | –
7 | CC1=C(C(N)=O)C(c2ccncc2)C(C#N)=C2SCC(=O)N12 (configuration not stated) | > 100 µM | > 100 µM | > 100 µM | > 100 µM | > 100 µM | – | > 100 µM | > 100 µM | > 100 µM | > 100 µM | > 100 µM | > 100 µM | > 100 µM | > 100 µM | > 100 µM | > 100 µM | > 100 µM | > 100 µM | – | –
8 | Cc1cccc2c1Oc1cc(Cl)ccc1C2NC(=O)CCN1CCOCC1 (configuration not stated) | > 100 µM | > 100 µM | > 100 µM | > 100 µM | > 100 µM | > 100 µM | > 100 µM | > 100 µM | > 100 µM | > 100 µM | – | > 100 µM | > 100 µM | > 100 µM | > 100 µM | > 100 µM | > 100 µM | > 100 µM | – | –
9 | COc1ccc2c(c1C)C(=O)C(O)(CC=C(C)C)O2 (configuration not stated) | > 100 µM | > 100 µM | > 100 µM | > 100 µM | > 100 µM | > 100 µM | > 100 µM | > 100 µM | – | > 100 µM | > 100 µM | > 100 µM | > 100 µM | > 100 µM | > 100 µM | > 100 µM | > 100 µM | > 100 µM | – | –
10 | CC(=O)Oc1ccccc1-c1cc2ccccc2oc1=O | > 100 µM | > 100 µM | > 100 µM | > 100 µM | – | > 100 µM | > 100 µM | > 100 µM | – | > 100 µM | > 100 µM | > 100 µM | > 100 µM | > 100 µM | > 100 µM | > 100 µM | > 100 µM | – | – | –
11 | CCN(CC)/C(Cl)=C(Cl)\C(=C1\Nc2ccc(OC)cc21)[N+](=O)[O-] | > 100 µM | 93.6 µM | > 100 µM | > 100 µM | > 100 µM | > 100 µM | > 100 µM | > 100 µM | > 100 µM | > 100 µM | – | > 100 µM | > 100 µM | > 100 µM | > 100 µM | > 100 µM | > 100 µM | > 100 µM | – | –
12 | CCOC(=O)C1=C(Nc2cccc(OC)c2)OCC1=O | – | > 100 µM | > 100 µM | > 100 µM | > 100 µM | > 100 µM | > 100 µM | > 100 µM | > 100 µM | > 100 µM | > 100 µM | > 100 µM | > 100 µM | > 100 µM | > 100 µM | > 100 µM | > 100 µM | > 100 µM | – | –
13 | Cc1cccc2c1[C@]13OC(C)[C@]4(C)CC5OC(=O)[C@@]1(C)[C@@H]5[C@]34C(=O)O2 (some centres not stated) | > 100 µM | > 100 µM | > 100 µM | > 100 µM | > 100 µM | > 100 µM | > 100 µM | > 100 µM | – | > 100 µM | > 100 µM | > 100 µM | > 100 µM | > 100 µM | > 100 µM | > 100 µM | > 100 µM | > 100 µM | – | –
14 | Cn1ccc(C(=O)NCCOCCNC(=O)c2ccn(C)c(=O)c2O)c(O)c1=O | > 100 µM | – | > 100 µM | – | – | > 100 µM | > 100 µM | > 100 µM | > 100 µM | > 100 µM | > 100 µM | – | > 100 µM | > 100 µM | > 100 µM | > 100 µM | > 100 µM | > 100 µM | – | –
15 | C[C@H]1[C@H](C)CC[C@]2(C)CC[C@]3(C)C(=C[C@@H](O)[C@@H]4[C@@]5(C)[C@H](O)[C@@H](O)[C@H](O)C(C)(C)[C@@H]5CC[C@]43C)[C@H]12 | > 100 µM | > 100 µM | > 100 µM | > 100 µM | > 100 µM | > 100 µM | > 100 µM | > 100 µM | – | > 100 µM | > 100 µM | > 100 µM | – | > 100 µM | > 100 µM | > 100 µM | > 100 µM | > 100 µM | 0.0221 µM | 18.7 µM
16 | CCN(CC)CCn1nc(N)c2nc3cc(Cl)ccc3nc21 | > 100 µM | – | > 100 µM | > 100 µM | 52.8 µM | > 100 µM | > 100 µM | > 100 µM | > 100 µM | > 100 µM | > 100 µM | > 100 µM | > 100 µM | > 100 µM | > 100 µM | > 100 µM | > 100 µM | > 100 µM | – | –
17 | CC1(C)c2ccccc2C(=O)C12CCC(=O)CC2 | > 100 µM | > 100 µM | > 100 µM | > 100 µM | > 100 µM | > 100 µM | > 100 µM | > 100 µM | > 100 µM | > 100 µM | – | > 100 µM | > 100 µM | > 100 µM | > 100 µM | > 100 µM | > 100 µM | > 100 µM | – | –
18 | COc1cccc(CCn2c(N)c(-c3ccccc3)c3ccc([N+](=O)[O-])cc3c2=O)c1 | 42 µM | 43 µM | 31.6 µM | 24.8 µM | 23.4 µM | 6.53 µM | 29.6 µM | 5.21 µM | – | > 79 µM | 5 µM | 22.7 µM | 50 µM | 41 µM | > 85.6 µM | 5.6 µM | 40.8 µM | 30.7 µM | – | –
19 | O=C1/C(=C\c2ccc([N+](=O)[O-])o2)SC2N=C(COc3ccc(Cl)cc3)NN12 (configuration not stated) | 38.4 µM | 5.97 µM | 27.3 µM | 22.3 µM | 9.82 µM | 10.5 µM | 15.9 µM | 42.9 µM | 3.43 µM | 24.4 µM | > 100 µM | 34.1 µM | 17.9 µM | 31.1 µM | 9.92 µM | 7.54 µM | 16.9 µM | – | – | –
20 | CCC1OC2C(CC=C(C)C)=C3OC(C)(O)C(C)(CC)C(OC(=O)c4ccccc4)C3=C3OC(=O)C=C1C32 (configuration not stated) | > 100 µM | > 100 µM | > 100 µM | > 100 µM | > 100 µM | 46.2 µM | 49.1 µM | > 100 µM | – | > 100 µM | > 100 µM | > 100 µM | > 100 µM | 94.6 µM | > 100 µM | > 100 µM | > 100 µM | > 100 µM | – | –
21 | CC12CCC(C(=O)OC1=O)C2(C)C (configuration not stated) | – | > 100 µM | > 100 µM | – | > 100 µM | > 100 µM | > 100 µM | > 100 µM | > 100 µM | > 100 µM | > 100 µM | > 100 µM | > 100 µM | > 100 µM | > 100 µM | > 100 µM | > 100 µM | > 100 µM | – | –
